The values that follow come from publication PMC8648660, “Multifunctional thiosemicarbazones targeting sigma receptors: in vitro and in vivo antitumor activities in pancreatic cancer models” (Cellular Oncology, 2021).

Some results are limits rather than exact numbers.

One data set has as its system MiaPaCa2 xenografts. The experiment in a line: In vivo xenograft assay, MiaPaCa2. As to conditions: gemcitabine 20 mg/kg twice a week, 15 days. Also on record: species or system mice.
Data set [1] can be described thus: Systemic toxicity and hematochemical parameters of treated PANC-1 tumor-bearing mice. As to conditions: gemcitabine 20 mg/kg twice a week; mean ± SD.
Experimental: 2 × 10^5 PANC-1 or Mia-PaCa2 cells were inoculated subcutaneously in the right flank of 6-week old C57BL/6 female nude mice (Charles River Laboratories Italia, Calco), housed (5 per cage) under a 12 h light/dark cycle, with food and drinking water provided ad libitum. Tumor growth was measured daily by caliper, according to the equation (LxW^2)/2, where L = tumor length and W = tumor width. […] Tumor volumes and animal weights were monitored daily. Animals were euthanized at day 18 or 36 after randomization with zolazepam (0.2 ml/kg) and xylazine (16 mg/kg). […] Red blood cell (RBC) count, hemoglobin (Hb), white blood cell (WBC) count, platelet (PLT) count, lactate dehydrogenase (LDH), aspartate aminotransferase (AST), alanine aminotransferase (ALT), alkaline phosphatase (AP), creatinine and creatine phosphokinase (CPK) were measured in blood samples collected immediately after euthanasia, using commercially available kits from Beckman Coulter Inc (Beckman Coulter, Miami, FL, USA).
Blood was collected immediately after euthanasia and analyzed for red blood cells (RBC) count, hemoglobin (Hb), white blood cells (WBC) count, platelets (PLT) count, lactate dehydrogenase (LDH), aspartate aminotransferase (AST), alanine aminotransferase (ALT), alkaline phosphatase (AP), creatinine, creatine phosphokinase (CPK). Data are presented as means ± SD.
Another data set relates to PANC-1 xenografts. In words: In vivo xenograft assay, PANC-1. More on the design: species or system mice. As to conditions: for tumor growth: gemcitabine 20 mg/kg twice a week.
Data set [2] has as its system sigma-1 and sigma-2 receptor subtypes. Also on record: method as in PMID 24106081. As to conditions: cited from earlier work.
The next data set relates to BxPC3 cells. More on the design: method as in PMID 29287249. To be noted: cited from earlier work.
The test system of a further data set is AspC1 cells. More on the design: method as in PMID 29287249. As to conditions: cited from earlier work.
The next data set has as its system PANC02 cells. Also on record: method as in PMID 29287249. As to conditions: cited from earlier work.
In the next data set the test system is MiaPaCa2 cells. Also on record: method as in PMID 29287249. To be noted: cited from earlier work.
For the next data set, the system named is KP02 cells. Also on record: method as in PMID 29287249. As to conditions: cited from earlier work.
Another data set has as its system HPDE cells. More on the design: method as in PMID 29287249. As to conditions: read-out: Activity EC50, HPDE (normal cells); cited from earlier work.
Data set [3] relates to GRP78, ATF6, IRE1 and PERK. The experiment in a line: qRT-PCR of ER stress markers in pancreatic cancer cells. The data set is classed as cell-based, human and murine. As to conditions: 50 µM, 2 h. How it is done: Total RNA was extracted using a phenol/chloroform method, after which 1 µg RNA was reverse-transcribed using an iScript Reverse Transcription Supermix kit according to the manufacturer’s instructions (Bio-Rad Laboratories). 25 ng cDNA was amplified using 10 µl of an IQ™ SYBR Green Supermix (Bio-Rad Laboratories). Primers were designed using qPrimer Depot software (http://primerdepot.nci.nih.gov/). qRT-PCR was carried out using an iQ^TM5 cycler (Bio-Rad Laboratories). The cycling conditions used were: 30 s at 95 °C, followed by 40 cycles of denaturation (15 s at 95 °C) and annealing/extension (30 s at 60 °C). The same cDNA preparations were used to quantify the expression of genes of interest and that of the housekeeping gene S14, which was used to normalize the gene expression levels. Relative quantitation of each sample was performed using Gene Expression Quantitation software (Bio-Rad Laboratories). The results were expressed in arbitrary units. For each gene, the expression level in untreated cells was arbitrarily set at “1”.
A general note: Quantitative PCR measures a nucleic acid by following its amplification.

Another data set relates to PANC-1 cells. Also on record: method as in PMID 29287249. To be noted: cited from earlier work.

Experimental for MiaPaCa2 xenografts: 2 × 10^5 PANC-1 or Mia-PaCa2 cells were inoculated subcutaneously in the right flank of 6-week old C57BL/6 female nude mice (Charles River Laboratories Italia, Calco), housed (5 per cage) under a 12 h light/dark cycle, with food and drinking water provided ad libitum. Tumor growth was measured daily by caliper, according to the equation (LxW^2)/2, where L = tumor length and W = tumor width. When tumors reached a volume of 100 mm^3, the mice (n = 8/group) were randomized in the following groups and treated daily for 15 days or 30 days intraperitoneally as reported: (1) Vehicle group (100 µl saline solution), (2) FA4^low group (750 nmol FA4 in 100 µl saline solution), (3) FA4^high group (1500 nmol FA4 in 100 µl saline solution) and (4) Gemcitabine group (20 mg/kg gemcitabine, twice a week). Tumor volumes and animal weights were monitored daily. Animals were euthanized at day 18 or 36 after randomization with zolazepam (0.2 ml/kg) and xylazine (16 mg/kg). Next, tumors were excised and paraffin-embedded. […] Quantification of the immunohistochemical analyses was performed using ImageJ software (https://imagej.nih.gov/). The staining intensities were expressed as arbitrary units and considered 1 in the vehicle group.
Experimental for PANC-1 xenografts: 2 × 10^5 PANC-1 or Mia-PaCa2 cells were inoculated subcutaneously in the right flank of 6-week old C57BL/6 female nude mice (Charles River Laboratories Italia, Calco), housed (5 per cage) under a 12 h light/dark cycle, with food and drinking water provided ad libitum. Tumor growth was measured daily by caliper, according to the equation (LxW^2)/2, where L = tumor length and W = tumor width. When tumors reached a volume of 100 mm^3, the mice (n = 8/group) were randomized in the following groups and treated daily for 15 days or 30 days intraperitoneally as reported: (1) Vehicle group (100 µl saline solution), (2) FA4^low group (750 nmol FA4 in 100 µl saline solution), (3) FA4^high group (1500 nmol FA4 in 100 µl saline solution) and (4) Gemcitabine group (20 mg/kg gemcitabine, twice a week). Tumor volumes and animal weights were monitored daily. Animals were euthanized at day 18 or 36 after randomization with zolazepam (0.2 ml/kg) and xylazine (16 mg/kg). Next, tumors were excised and paraffin-embedded. Sections were immuno-stained for cleaved caspase 3 (Cell Signalling Technology, Danvers, MA, USA) or with an anti-malondialdehyde antibody (Abcam), followed by a peroxidase-conjugated secondary antibody (Dako, Glostrup, Denmark). The sections were examined under a Leica DC100 microscope (Leica, Wetzlar, Germany). Quantification of the immunohistochemical analyses was performed using ImageJ software (https://imagej.nih.gov/). The staining intensities were expressed as arbitrary units and considered 1 in the vehicle group.

For `Nc1ccn([C@@H]2O[C@H](CO)[C@@H](O)C2(F)F)c(=O)n1` [gemcitabine], the tumor growth entry in the data set with MiaPaCa2 xenografts is recorded as “MiaPaCa2 tumors were more sensitive to gemcitabine”. In [1], this compound displayed an ALT of 36±12 U/l, an AP of 134±43 U/l, an AST of 142±18 U/l and a CPK of 309±32 U/l. Also, in [1], the Hb was 11.03 ± 1.94 g/dL, the LDH came out at 6704±832 U/l, the PLT is 931±165 x 10^3/µl and the RBC is given as 11.28±0.98 x 10^6/µl. Also, the WBC in data set [1] was 12.18±2.39 x 10^3/µl. Further, the tumor growth result with PANC-1 xenografts (15 days) is reported as “ineffective against this tumor cell line”. The tumor growth result in the data set with PANC-1 xenografts (30 days) is reported as “not able to significantly reduce tumor growth”. Further, the “intratumor apoptosis (cleaved caspase 3) and lipid peroxidation” value with PANC-1 xenografts (gemcitabine, 30 days) is reported as “low or undetectable”.

`Fc1ccc(-n2cc(CCCCN3CCC4(CC3)OCc3ccccc34)c3ccccc32)cc1` [siramesine]: the “binding to sigma-1 versus sigma-2 receptor subtypes” value in data set [2] is “binds equally well to the sigma-1 and sigma-2 receptor subtypes”.

For orientation: EC50 means the midpoint of the concentration-response curve. For the compound `CN(C)C(=S)N/N=C1\C(=O)N(CCCCN2CCN(C3CCCCC3)CC2)c2ccccc21` [PS3, (Z)-2-[1-[4-(4-cyclohexylpiperazin-1-yl)butyl]-2-oxoindolin-3-ylidene]-N,N-dimethylhydrazinecarbothioamide], the EC50 in the data set on BxPC3 cells is 6.15 µM; with AspC1 cells, 3.86 µM; in the data set on PANC02 cells it was 1.17 µM; in the data set with MiaPaCa2 cells, 10.1 µM; with KP02 cells it was 7.32 µM; with HPDE cells, 5.35 µM. Further, the EC50 in the data set with PANC-1 cells is 8.73 µM. In data set [3], the “mRNA expression of ER stress markers GRP78, ATF6, IRE1, PERK” value (from here on “mRNA expression”) is “none of the markers was increased in the other cells”.

As to `CN(C)C(=S)N/N=C1\C(=O)Nc2ccccc21` [ACthio-1, (Z)-N,N-dimethyl-2-(2-oxoindolin-3-ylidene)hydrazinecarbothioamide], the EC50 in the data set with BxPC3 cells was 2.52 µM; in the data set on AspC1 cells it was 2.17 µM; with PANC02 cells, 1.21 µM; in the data set with MiaPaCa2 cells, 18.3 µM; in the data set with KP02 cells, 2.83 µM; in the data set on HPDE cells it was 10.5 µM. Also, in the data set on PANC-1 cells, the EC50 was above 100 µM. For the same compound, in data set [3], the “mRNA expression” value is on record as “none of the markers was increased in the other cells”.

On to `COc1cc2c(cc1OC)CN(CCCCN1C(=O)/C(=N\NC(=S)N(C)C)c3ccccc31)CC2` [MLP44, (Z)-2-(1-(4-(6,7-dimethoxy-3,4-dihydroisoquinolin-2(1H)-yl)butyl)-2-oxoindolin-3-ylidene)-N,N-dimethylhydrazinecarbothioamide], for which the EC50 with BxPC3 cells is 2.34 µM; in the data set with AspC1 cells, 2.01 µM; with PANC02 cells, 1.33 µM; in the data set with MiaPaCa2 cells it was 14.6 µM; with KP02 cells it was 6.92 µM; in the data set with HPDE cells, 9.5 µM. For the same compound, the EC50 in the data set on PANC-1 cells is 14.6 µM. Further, the “mRNA expression” value in data set [3] is given as “none of the markers was increased in the other cells”.
